Laboratory results: US20110166112A1, “METHOD FOR STIMULATING PLATELET PRODUCTION” (Eisai, Inc., priority 2009, published 2011)
Several values for one entry are separate records, joined by “and”; a condition that tells them apart may be missing. Identical values can stand only once.

Test system: subjects with chronic idiopathic thrombocytopenic purpura (ITP)
Assay: Phase 2 double-blind placebo-controlled dose-ranging 28-day study of E5501 tablets: platelet count response (responder rate)
Assay type: in vivo, human
Details: for Responder, Yes / Responder, No: Day 28; for Subjects Who Maintained Responder Status, No / Subjects Who Maintained Responder Status, Yes: completer population; for Subjects Who Maintained Responder Status, Yes: Day 7 response maintained to Day 28; for subjects with increased platelet counts that met the criteria for positive response / response: day 28; for subjects with increased platelet counts that met the criteria for positive response: FAS
Experimental: This was a phase 2, multi-center, double-blind, randomized, placebo-controlled, dose-ranging, parallel group study of E5501 tablets, used in the treatment of subjects with chronic idiopathic thrombocytopenic purpura (ITP) refractory to or relapsed after at least one prior ITP therapy. Subjects who met all entry criteria were randomly assigned in a 3:3:3:3:1 ratio to one of the following five treatment groups dosed daily for 28 days: 1) E5501 2.5 mg; 2) E5501 5 mg; 3) E5501 10 mg; 4) E5501 20 mg; or 5) placebo (PBO). Each E5501 dosing group consisted of 15 subjects while the PBO group consisted of 5 subjects. All study subjects were evaluated weekly (days 7, 14, 21 and 28) for safety and efficacy while receiving study treatment, with a final assessment for safety and effectiveness performed 4 weeks after the last study dose (day 56) unless the subject entered the follow-on study. Platelet counts were also measured on day 3 and day 5.
The primary objective of this study was to assess platelet count response to E5501 on day 28. The response rate was defined as the proportion of subjects who were not on steroids with a screening visit B platelet count <30,000/mm^3 and who achieved a platelet count ≧50,000/mm^3, together with the proportion of subjects receiving steroids with a screening visit B platelet count ≧30,000/mm^3 but <50,000/mm^3 who achieved a platelet count ≧20,000/mm^3 above their screening visit B platelet count. Secondary objectives of the study included the evaluation of other markers of effectiveness, including changes in peripheral blood platelet count, the proportion of subjects who achieved a platelet count ≧50,000/mm^3 and ≧100,000/mm^3, and the proportion of subjects who achieved a doubling of their platelet count at screening visit B and the assessment of the safety and tolerability of E5501.
Primary efficacy endpoint. The primary endpoint in this study was E5501 responder rate on day 28. A responder is defined as a subject with screening visit B platelet count <30,000/mm^3 who achieves a platelet count ≧50,000/mm^3 or a subject receiving steroids with a screening visit B platelet count ≧30,000/mm^3 but <50,000/mm^3 who achieves a platelet count ≧20,000/mm^3 above their screening visit B platelet count.
The secondary endpoints included changes from screening visit B in peripheral blood platelet counts over time; the proportion of subjects who achieved a platelet count of ≧50,000/mm^3 or ≧100,000/mm^3 on day 28 and the proportion of subjects whose platelet count doubled compared to their platelet count at Screening Visit B.
The populations of interest were defined as follows: • The randomized population included all subjects who were randomized into the study. • The safety population included all randomized subjects who receive at least one dose of study drug and have at least one safety assessment. • The pharmacokinetic (PK) population included all subjects who provided blood sample for analysis of E5501. A subject was included in this population if the subject had at least one blood draw for PK assessment. • The full analysis set (FAS) included all subjects who provided adequate data to derive at least one efficacy assessment. […] The day 28 visit window was defined to be from day 25, to last dose day+1, inclusively; • Other major protocol violations that impacted the platelet endpoint evaluation. Results from Planned Analyses
Primary Efficacy Endpoint. The analysis of efficacy was performed both on the FAS population and the PP population at day 28 visit with LOCF and observed case (OC) approaches. The primary analysis population was the FAS. Fisher's exact test was used to examine the difference of response rates among each treatment pair. All p-values are nominal without adjustment for multiplicity.
Secondary Efficacy Endpoint. Analyses for secondary efficacy endpoints were performed by treatment group and by analysis visit using both LOCF and OC methods. […]

[1] = No Previous History of Splenectomy, 20 mg
[2] = No Previous History of Splenectomy, Total E5501
[3] = Number of Lines of Prior Therapy <3, 2.5 mg
[4] = Number of Lines of Prior Therapy <3, 5 mg
[5] = Number of Lines of Prior Therapy <3, 10 mg
[6] = Number of Lines of Prior Therapy <3, 20 mg
[7] = Number of Lines of Prior Therapy <3, Total E5501
[8] = Number of Lines of Prior Therapy ≧3, 2.5 mg
[9] = Number of Lines of Prior Therapy ≧3, 5 mg
[10] = Number of Lines of Prior Therapy ≧3, 10 mg
[11] = Number of Lines of Prior Therapy ≧3, 20 mg
[12] = Number of Lines of Prior Therapy ≧3, Total E5501
[13] = Per Protocol Population, 2.5 mg
[14] = Per Protocol Population, Total E5501
[15] = Previous History of Splenectomy, 2.5 mg
[16] = Previous History of Splenectomy, 5 mg
[17] = Previous History of Splenectomy, 10 mg
[18] = Previous History of Splenectomy, 20 mg
[19] = Previous History of Splenectomy, Total E5501

## O=C(Nc1nc(-c2cc(Cl)cs2)c(N2CCN(C3CCCCC3)CC2)s1)c1cnc(N2CCC(C(=O)O)CC2)c(Cl)c1 [E5501, 1-(3-chloro-5-{[4-(4-chlorothiophen-2-yl)-5-(4-cyclohexylpiperazin-1-yl)thiazol-2-yl]carbamoyl}pyridine-2-yl)piperidine-4-carboxylic acid]
No Previous History of Splenectomy, 10 mg
  Responder, Yes: 6 (54.5) n (%)
[1]
  Responder, No: 1 (11.1) n (%)
  Responder, Yes: 8 (88.9) n (%)
[2]
  Responder, No: 20 (48.8) n (%)
  Responder, Yes: 21 (51.2) n (%)
[3]
  Responder, No: 3 (100.0) n (%)
  Responder, Yes: 0 n (%)
[4]
  Responder, No: 4 (44.4) n (%)
  Responder, Yes: 5 (55.6) n (%)
[5]
  Responder, No: 1 (25.0) n (%)
  Responder, Yes: 3 (75.0) n (%)
[6]
  Responder, No: 1 (14.3) n (%)
  Responder, Yes: 6 (85.7) n (%)
[7]
  Responder, No: 9 (39.1) n (%)
  Responder, Yes: 14 (60.9) n (%)
[8]
  Responder, No: 10 (83.3) n (%)
  Responder, Yes: 2 (16.7) n (%)
[9]
  Responder, No: 3 (50.0) n (%)
  Responder, Yes: 3 (50.0) n (%)
[10]
  Responder, No: 6 (60.0) n (%)
  Responder, Yes: 4 (40.0) n (%)
[11]
  Responder, No: 2 (25.0) n (%)
  Responder, Yes: 6 (75.0) n (%)
[12]
  Responder, No: 21 (58.3) n (%)
  Responder, Yes: 15 (41.7) n (%)
Other Site Pooled, 2.5 mg
  Responder, No: 8 (88.9) n (%)
  Responder, Yes: 1 (11.1) n (%)
Other Site Pooled, 5 mg
  Responder, No: 6 (60.0)2 n (%)
  Responder, Yes: 4 (40.0) n (%)
Other Site Pooled, 10 mg
  Responder, No: 4 (57.1) n (%)
  Responder, Yes: 3 (42.9) n (%)
Other Site Pooled, 20 mg
  Responder, No: 1 (16.7) n (%)
  Responder, Yes: 5 (83.3) n (%)
Other Site Pooled, Total E5501
  Responder, No: 19 (59.4) n (%)
  Responder, Yes: 13 (40.6) n (%)
[13]
  Responder, No: 11 (84.6) n (%)
  Responder, Yes: 2 (15.4) n (%)
Per Protocol Population, 5 mg
  Responder, No: 7 (53.8) n (%)
  Responder, Yes: 6 (46.2) n (%)
Per Protocol Population, 10 mg
  Responder, No: 5 (41.7) n (%)
  Responder, Yes: 7 (58.3) n (%)
Per Protocol Population, 20 mg
  Responder, No: 3 (25.0) n (%)
  Responder, Yes: 9 (75.0) n (%)
[14]
  Responder, No: 26 (52.0) n (%)
  Responder, Yes: 24 (48.0) n (%)
[15]
  Responder, No: 4 (80.0) n (%)
  Responder, Yes: 1 (20.0) n (%)
[16]
  Responder, No: 2 (50.0) n (%)
  Responder, Yes: 2 (50.0) n (%)
[17]
  Responder, No: 2 (66.7) n (%)
  Responder, Yes: 1 (33.3) n (%)
[18]
  Responder, No: 2 (33.3) n (%)
  Responder, Yes: 4 (66.7) n (%)
[19]
  Responder, No: 10 (55.6) n (%)
  Responder, Yes: 8 (44.4) n (%)
Site 132, 2.5 mg
  Responder, No: 5 (83.3) n (%)
  Responder, Yes: 1 (16.7) n (%)
Site 132, 5 mg
  Responder, No: 1 (20.0) n (%)
  Responder, Yes: 4 (80.0) n (%)
Site 132, 10 mg
  Responder, No: 3 (42.9) n (%)
  Responder, Yes: 4 (57.1) n (%)
Site 132, 20 mg
  Responder, No: 2 (22.2) n (%)
  Responder, Yes: 7 (77.8) n (%)
Site 132, Total E5501
  Responder, No: 11 (40.7) n (%)
  Responder, Yes: 16 (59.3) n (%)
By Day 7, 2.5 mg
  responder rate: 6.7%
By Day 7, 5 mg
  responder rate: 66.7%
By Day 7, 10 mg
  responder rate: 64%
By Day 7, 20 mg
  responder rate: 93.3% and 93%
  subjects who achieved an increase in platelet count by ≧50,000/mm^3: Approximately 90%
2.5 mg
  Subjects Who Maintained Responder Status, No: 13 (100.0) n (%)
  Subjects Who Maintained Responder Status, Yes: 0 n (%)
  subjects with increased platelet counts that met the criteria for positive response: 13.3%
5 mg
  Subjects Who Maintained Responder Status, No: 10 (71.4) n (%)
  Subjects Who Maintained Responder Status, Yes: 4 (28.6) n (%)
  subjects with increased platelet counts that met the criteria for positive response: 53.3%
10 mg
  Subjects Who Maintained Responder Status, No: 7 (58.3) n (%)
  Subjects Who Maintained Responder Status, Yes: 5 (41.7) n (%)
  subjects with increased platelet counts that met the criteria for positive response: 50%
20 mg
  Subjects Who Maintained Responder Status, No: 3 (23.1) n (%)
  Subjects Who Maintained Responder Status, Yes: 10 (76.9) n (%)
  subjects with increased platelet counts that met the criteria for positive response: 80%
Total E5501
  Subjects Who Maintained Responder Status, Yes: 19 (36.5) n (%)
  Subjects Who Maintained Responder Status, No: 33 (63.5) n (%)
Other sites pooled, 5 mg
  response: 40%
Site 132, 5 mg
  response: 80%
Dose of ≧5 mg
  subjects who responded by day 7: 57.6%
Highest dose of E5501 tested
  overall response rate: 80-93%
Lower E5501 dose groups
  reduction of response rates from day 7 to 28 days: about 30%
Of 13 subjects
  subjects treated with E5501 who responded by day 3: One
Of 19 subjects
  subjects treated with E5501 who responded by day 5: 6 subjects
